Consider eleven compounds from US20260125382A1, “COMPOUNDS FOR INHIBITING OR DEGRADING CDK2 AND/OR CDK9 AND MEDICINAL USE THEREOF” (KOREA RESEARCH INSTITUTE OF CHEMICAL TECHNOLOGY, priority 2022, published 2026).

In one assay the target is T1, CDK2 (Homo sapiens, UniProt P24941).
T1 construct: endogenous in cells; host or cells: MDA-MB-231
Kind of assay: CDK protein degradation activity (Western blotting), CDK2. In kind it is cell-based. The note with it: MDA-MB-231 cells, 16 hours, Western blot. In a few lines: (§1)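 CDK2 and CDK9 protein levels measured by Western blot with densitometry, using tubulin as loading reference. Cells were MDA-MB-231, exposed for 16 h to 100 nM, 1 μM or 10 μM compound or to DMSO.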

The target in a further assay is T2, CDK9 (Homo sapiens, UniProt P50750).
T2 construct: endogenous in cells; host or cells: MDA-MB-231
Kind of assay: CDK protein degradation activity (Western blotting), CDK9. As to conditions: MDA-MB-231 cells, 16 hours, Western blot. Type of assay: cell-based. In a few lines:
as §1

SMILES strings stand for the structures.

T2 sequence (P50750 whole entry): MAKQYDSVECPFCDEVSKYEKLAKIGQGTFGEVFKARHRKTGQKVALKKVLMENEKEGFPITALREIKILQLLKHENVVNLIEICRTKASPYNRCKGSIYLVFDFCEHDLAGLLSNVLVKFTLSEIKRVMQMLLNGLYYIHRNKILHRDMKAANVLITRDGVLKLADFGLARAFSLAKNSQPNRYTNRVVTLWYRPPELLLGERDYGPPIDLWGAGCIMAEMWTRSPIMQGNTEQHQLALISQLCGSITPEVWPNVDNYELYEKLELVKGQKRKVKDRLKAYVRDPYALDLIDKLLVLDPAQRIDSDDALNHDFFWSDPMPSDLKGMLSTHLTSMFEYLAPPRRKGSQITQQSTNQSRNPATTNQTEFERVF

For `O=C1CC[C@H](N2C(=O)c3cccc(CCCN4CCC(CN5CCN(c6ccc(Nc7ncnc8c7ncn8C7CC(NC(=O)c8cccc(C(F)(F)F)n8)C7)cc6)CC5)CC4)c3C2=O)C(=O)N1` (stereo partly drawn) [Compound 426, N-((1s,3s)-3-(6-((4-(4-((1-(3-(2-(2,6-dioxopiperidin-3-yl)-1,3-dioxoisoindolin-4-yl)propyl)piperidin-4-yl)methyl)piperazin-1-yl)phenyl)amino)-9H-purin-9-yl)cyclobutyl)-6-(trifluoromethyl)picolinamide], at CDK2, the “Enzyme degradation CDK2 (% remaining) @ 0.1 μM” value was 10%, the “Enzyme degradation CDK2 (% remaining) @ 1 μM” value came out at 10% and the “Enzyme degradation CDK2 (% remaining) @ 10 μM” value is 30%. Besides, on CDK9, the “Enzyme degradation CDK9 (% remaining) @ 0.1 μM” value amounted to 0%, the “Enzyme degradation CDK9 (% remaining) @ 1 μM” value was 0% and the “Enzyme degradation CDK9 (% remaining) @ 10 μM” value worked out at 20%.

Take `O=C1CC[C@H](N2C(=O)c3cccc(CCCCN4CCC(CN5CCN(c6ccc(Nc7ncnc8c7ncn8[C@H]7C[C@@H](NC(=O)c8cccc(C(F)(F)F)n8)C7)cc6)CC5)CC4)c3C2=O)C(=O)N1` [Compound 427, N-((1s,3s)-3-(6-((4-(4-((1-(4-(2-(2,6-dioxopiperidin-3-yl)-1,3-dioxoisoindolin-4-yl)butyl)piperidin-4-yl)methyl)piperazin-1-yl)phenyl)amino)-9H-purin-9-yl)cyclobutyl)-6-(trifluoromethyl)picolinamide]: at CDK2, the “Enzyme degradation CDK2 (% remaining) @ 0.1 μM” value was 20/20/20%, the “Enzyme degradation CDK2 (% remaining) @ 1 μM” value is reported as 20/20/20% and the “Enzyme degradation CDK2 (% remaining) @ 10 μM” value is listed as 20/20/20%. Further, at CDK9, the “Enzyme degradation CDK9 (% remaining) @ 0.1 μM” value is listed as 0%, the “Enzyme degradation CDK9 (% remaining) @ 1 μM” value amounted to 0% and the “Enzyme degradation CDK9 (% remaining) @ 10 μM” value was 20%.

Regarding `O=C1CC[C@H](N2C(=O)c3cc(F)c(N4CCC(CN5CCN(c6ccc(Nc7ncnc8c7ncn8C7CC(NC(=O)c8cccc(F)n8)C7)cc6)CC5)CC4)cc3C2=O)C(=O)N1` (stereo partly drawn) [Compound 428, N-((1s,3s)-3-(6-((4-(4-((1-(2-(2,6-dioxopiperidin-3-yl)-6-fluoro-1,3-dioxoisoindolin-5-yl)piperidin-4-yl)methyl)piperazin-1-yl)phenyl)amino)-9H-purin-9-yl)cyclobutyl)-6-fluoropicolinamide], on CDK2, the “Enzyme degradation CDK2 (% remaining) @ 0.1 μM” value is listed as 10/10/10%, the “Enzyme degradation CDK2 (% remaining) @ 1 μM” value is reported as 10/10/10% and the “Enzyme degradation CDK2 (% remaining) @ 10 μM” value was 10/10/10%. For the same compound, on CDK9, the “Enzyme degradation CDK9 (% remaining) @ 0.1 μM” value is 0/0/0%, the “Enzyme degradation CDK9 (% remaining) @ 1 μM” value is listed as 0/0/0% and the “Enzyme degradation CDK9 (% remaining) @ 10 μM” value was 0/0/0%.

`O=C1CC[C@H](n2nnc3ccc(N4CCC(CN5CCN(c6ccc(Nc7ncnc8c7ncn8C7CC(NC(=O)c8cccc(F)n8)C7)cc6)CC5)CC4)cc3c2=O)C(=O)N1` (stereo partly drawn) [Compound 429, N-((1s,3s)-3-(6-((4-(4-((1-(3-(2,6-dioxopiperidin-3-yl)-4-oxo-3,4-dihydrobenzo[d][1,2,3]triazin-6-yl)piperidin-4-yl)methyl)piperazin-1-yl)phenyl)amino)-9H-purin-9-yl)cyclobutyl)-6-fluoropicolinamide]: at CDK2, the “Enzyme degradation CDK2 (% remaining) @ 0.1 μM” value is recorded as 10/10/10%, the “Enzyme degradation CDK2 (% remaining) @ 1 μM” value is 10/10/10% and the “Enzyme degradation CDK2 (% remaining) @ 10 μM” value is 10/10/10%. Besides, on CDK9, the “Enzyme degradation CDK9 (% remaining) @ 0.1 μM” value is 0/0/0%, the “Enzyme degradation CDK9 (% remaining) @ 1 μM” value was 0/0/0% and the “Enzyme degradation CDK9 (% remaining) @ 10 μM” value is recorded as 0/0/0%.

In the case of `O=C1CC[C@H](N2C(=O)c3cccc(NCC(=O)N4CCC(CN5CCN(c6ccc(Nc7ncnc8c7ncn8C7CC(NC(=O)c8cccc(F)n8)C7)cc6)CC5)CC4)c3C2=O)C(=O)N1` (stereo partly drawn) [Compound 430, N-((1s,3s)-3-(6-((4-(4-((1-((2-(2,6-dioxopiperidin-3-yl)-1,3-dioxoisoindolin-4-yl)glycyl)piperidin-4-yl)methyl)piperazin-1-yl)phenyl)amino)-9H-purin-9-yl)cyclobutyl)-6-fluoropicolinamide], on CDK2, the “Enzyme degradation CDK2 (% remaining) @ 0.1 μM” value was 10/10/10%, the “Enzyme degradation CDK2 (% remaining) @ 1 μM” value is recorded as 10/10/10% and the “Enzyme degradation CDK2 (% remaining) @ 10 μM” value is given as 10/10/10%. In addition, at CDK9, the “Enzyme degradation CDK9 (% remaining) @ 0.1 μM” value is listed as 0/0/0%, the “Enzyme degradation CDK9 (% remaining) @ 1 μM” value was 0/0/0% and the “Enzyme degradation CDK9 (% remaining) @ 10 μM” value is reported as 0/0/0%.

With `O=C1CC[C@H](N2C(=O)c3cccc(CCCN4CCC(CN5CCN(c6ccc(Nc7ncnc8c7ncn8C7CC(NC(=O)c8cccc(F)n8)C7)cc6)CC5)CC4)c3C2=O)C(=O)N1` (stereo partly drawn) [Compound 431, N-((1s,3s)-3-(6-((4-(4-((1-(3-(2-(2,6-dioxopiperidin-3-yl)-1,3-dioxoisoindolin-4-yl)propyl)piperidin-4-yl)methyl)piperazin-1-yl)phenyl)amino)-9H-purin-9-yl)cyclobutyl)-6-fluoropicolinamide], on CDK2, the “Enzyme degradation CDK2 (% remaining) @ 0.1 μM” value is reported as 30/30/30%, the “Enzyme degradation CDK2 (% remaining) @ 1 μM” value is 30/30/30% and the “Enzyme degradation CDK2 (% remaining) @ 10 μM” value is listed as 30/30/30%. Further, on CDK9, the “Enzyme degradation CDK9 (% remaining) @ 0.1 μM” value is recorded as 0/0/0%, the “Enzyme degradation CDK9 (% remaining) @ 1 μM” value is recorded as 0/0/0% and the “Enzyme degradation CDK9 (% remaining) @ 10 μM” value is 0/0/0%.

`O=C1CCC(N2C(=O)c3cccc(CCCCN4CCC(CN5CCN(c6ccc(Nc7ncnc8c7ncn8[C@H]7C[C@@H](NC(=O)c8cccc(F)n8)C7)cc6)CC5)CC4)c3C2=O)C(=O)N1` (stereo partly drawn) [Compound 432, N-((1s,3s)-3-(6-((4-(4-((1-(4-(2-(2,6-dioxopiperidin-3-yl)-1,3-dioxoisoindolin-4-yl)butyl)piperidin-4-yl)methyl)piperazin-1-yl)phenyl)amino)-9H-purin-9-yl)cyclobutyl)-6-fluoropicolinamide]: at CDK2, the “Enzyme degradation CDK2 (% remaining) @ 0.1 μM” value came to 50%, the “Enzyme degradation CDK2 (% remaining) @ 1 μM” value is given as 40% and the “Enzyme degradation CDK2 (% remaining) @ 10 μM” value amounted to 40%. In addition, on CDK9, the “Enzyme degradation CDK9 (% remaining) @ 0.1 μM” value is 0/0/0%, the “Enzyme degradation CDK9 (% remaining) @ 1 μM” value is 0/0/0% and the “Enzyme degradation CDK9 (% remaining) @ 10 μM” value is given as 0/0/0%.

Turning to `O=C1CC[C@@H](c2ccc(OCC(=O)N3CCC(CCN4CCN(c5ccc(Nc6ncnc7c6ncn7C6CC(NC(=O)Cc7ccccc7)C6)cc5)CC4)CC3)cc2)C(=O)N1` (stereo partly drawn) [Compound 433, N-((1s,3s)-3-(6-((4-(4-(2-(1-(2-(4-(2,6-dioxopiperidin-3-yl)phenoxy)acetyl)piperidin-4-yl)ethyl)piperazin-1-yl)phenyl)amino)-9H-purin-9-yl)cyclobutyl)-2-phenylacetamide], at CDK2, the “Enzyme degradation CDK2 (% remaining) @ 0.1 μM” value amounted to 80%, the “Enzyme degradation CDK2 (% remaining) @ 1 μM” value came out at 90% and the “Enzyme degradation CDK2 (% remaining) @ 10 μM” value is listed as 90%. Moreover, on CDK9, the “Enzyme degradation CDK9 (% remaining) @ 0.1 μM” value is 20%, the “Enzyme degradation CDK9 (% remaining) @ 1 μM” value was 10% and the “Enzyme degradation CDK9 (% remaining) @ 10 μM” value is listed as 10%.

Consider `O=C1CCC(c2ccc(OCC(=O)N3CCC(CCN4CCN(c5ccc(Nc6ncnc7c6ncn7[C@H]6C[C@@H](NC(=O)c7c(Cl)cccc7Cl)C6)cc5)CC4)CC3)cc2)C(=O)N1` (stereo partly drawn) [Compound 434, 2,6-dichloro-N-((1s,3s)-3-(6-((4-(4-(2-(1-(2-(4-(2,6-dioxopiperidin-3-yl)phenoxy)acetyl)piperidin-4-yl)ethyl)piperazin-1-yl)phenyl)amino)-9H-purin-9-yl)cyclobutyl)benzamide], for which, at CDK2, the “Enzyme degradation CDK2 (% remaining) @ 0.1 μM” value is 50%, the “Enzyme degradation CDK2 (% remaining) @ 1 μM” value came to 70% and the “Enzyme degradation CDK2 (% remaining) @ 10 μM” value is listed as 80%. Moreover, at CDK9, the “Enzyme degradation CDK9 (% remaining) @ 0.1 μM” value is on record as 10/10/10%, the “Enzyme degradation CDK9 (% remaining) @ 1 μM” value was 10/10/10% and the “Enzyme degradation CDK9 (% remaining) @ 10 μM” value is 10/10/10%.

For the compound `Cc1cccc(C(=O)NC2CC(n3cnc4c(Nc5ccc(N6CCN(C7CC8(CCN(C(=O)COc9ccc([C@@H]%10CCC(=O)NC%10=O)cc9)CC8)C7)CC6)cc5)ncnc43)C2)n1` (stereo partly drawn) [Compound 435, N-((1s,3s)-3-(6-((4-(4-(7-(2-(4-(2,6-dioxopiperidin-3-yl)phenoxy)acetyl)-7-azaspiro[3.5]nonan-2-yl)piperazin-1-yl)phenyl)amino)-9H-purin-9-yl)cyclobutyl)-6-methylpicolinamide], on CDK2, the “Enzyme degradation CDK2 (% remaining) @ 0.1 μM” value is on record as 40/40/40%, the “Enzyme degradation CDK2 (% remaining) @ 1 μM” value is listed as 40/40/40% and the “Enzyme degradation CDK2 (% remaining) @ 10 μM” value is reported as 40/40/40%. Moreover, at CDK9, the “Enzyme degradation CDK9 (% remaining) @ 0.1 μM” value was 10/10/10%, the “Enzyme degradation CDK9 (% remaining) @ 1 μM” value is 10/10/10% and the “Enzyme degradation CDK9 (% remaining) @ 10 μM” value was 10/10/10%.

As for `O=C1CC[C@@H](c2ccc(OCC(=O)N3CCC(CN4CCN(c5ccc(Nc6ncnc7c6ncn7C6CC(NC(=O)c7cccc(C(F)(F)F)n7)C6)cc5)CC4)CC3)cc2)C(=O)N1` (stereo partly drawn) [Compound 436, N-((1s,3s)-3-(6-((4-(4-((1-(2-(4-(2,6-dioxopiperidin-3-yl)phenoxy)acetyl)piperidin-4-yl)methyl)piperazin-1-yl)phenyl)amino)-9H-purin-9-yl)cyclobutyl)-6-(trifluoromethyl)picolinamide], at CDK2, the “Enzyme degradation CDK2 (% remaining) @ 0.1 μM” value is on record as 30/30/30%, the “Enzyme degradation CDK2 (% remaining) @ 1 μM” value is on record as 30/30/30% and the “Enzyme degradation CDK2 (% remaining) @ 10 μM” value is given as 30/30/30%. Also, at CDK9, the “Enzyme degradation CDK9 (% remaining) @ 0.1 μM” value was 10/10/10%, the “Enzyme degradation CDK9 (% remaining) @ 1 μM” value is listed as 10/10/10% and the “Enzyme degradation CDK9 (% remaining) @ 10 μM” value is listed as 10/10/10%.
